Reference: publication PMC11396368, “Free Radical Production Induced by Nitroimidazole Compounds Lead to Cell Death in Leishmania infantum Amastigotes” (Molecules, 2024)
Several values for one entry are separate records, joined by “and”; a condition that tells them apart may be missing. Identical values can stand only once. Like-named read-outs stand apart in the source and are kept apart here.

Key:
[1] = system: intracellular amastigotes of L donovani; conditions: cited from earlier work
[2] = system: L. infantum-iRFP axenic amastigotes; assay: ROS production by axenic amastigotes (DCFH-DA, flow cytometry); format: cell-based, Leishmania infantum; conditions: 3 h treatment, 0.04 μM fexinidazole, 0.28 μM pretomanid (EC50)
L. infantum TryR = L. infantum TryR (Leishmania infantum, UniProt A4HSF7); assay: Trypanothione reductase enzymatic assay in parasite protein extracts; format: biochemical; conditions: up to 100 μM (thioridazine at 100 μM); T[S]2 0.075 mM, NADPH 0.20 mM
[3] = Cytotoxicity in HepG2 cells (alamarBlue); conditions: human
[4] = Cytotoxicity in RAW 264.7 cells (alamarBlue); conditions: mouse
[5] = system: intramacrophage L. infantum-iRFP amastigotes; assay: Viability of L. infantum-iRFP intramacrophage amastigotes in infected murine splenocytes (infrared fluorescence, 384-well); format: cell-based, Leishmania infantum; conditions: for EC50: Leishmania infantum, Splenocyte, 72 h incubation, mean ± SD
[6] = system: L. infantum-iRFP axenic amastigotes; assay: Viability of L. infantum-iRFP axenic amastigotes (infrared fluorescence, 384-well); format: cell-based, Leishmania infantum; conditions: for EC50: Leishmania infantum, 72 h incubation, mean ± SD; for concentrations producing a decrease in fluorescence emission: axenic amastigotes, from 24 h until 72 h
[7] = CC50 HepG2 cells / EC50 intramacrophage amastigotes
[8] = CC50 RAW 264.7 cells / EC50 intramacrophage amastigotes
[9] = CC50 HepG2 cells / EC50 axenic amastigotes
[10] = CC50 RAW 264.7 cells / EC50 axenic amastigotes

Chain of L. infantum TryR (A4HSF7 entry or part of it): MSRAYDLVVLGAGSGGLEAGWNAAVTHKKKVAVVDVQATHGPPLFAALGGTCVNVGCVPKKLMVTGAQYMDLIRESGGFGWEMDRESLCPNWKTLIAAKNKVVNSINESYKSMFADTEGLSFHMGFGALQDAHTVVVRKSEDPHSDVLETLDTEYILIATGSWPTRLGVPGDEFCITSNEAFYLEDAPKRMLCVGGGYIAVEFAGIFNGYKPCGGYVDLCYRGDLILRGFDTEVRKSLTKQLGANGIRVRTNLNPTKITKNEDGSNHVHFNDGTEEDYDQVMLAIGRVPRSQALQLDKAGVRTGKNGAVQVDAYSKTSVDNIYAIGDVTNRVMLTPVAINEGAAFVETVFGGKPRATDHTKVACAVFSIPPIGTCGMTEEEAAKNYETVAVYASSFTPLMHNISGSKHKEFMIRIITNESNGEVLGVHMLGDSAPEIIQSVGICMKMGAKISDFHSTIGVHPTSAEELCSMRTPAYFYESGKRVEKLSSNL

Question: For `Cn1c([N+](=O)[O-])cnc1COc1ccc(S(C)(=O)=O)cc1` [sulfone], which “potency against intracellular amastigotes” value (“potency” for short) [1] is on record?
Answer: Its value is “potency similar to miltefosine”.

Question: With `Cn1c([N+](=O)[O-])cnc1COc1ccc([S+](C)[O-])cc1` (stereo not drawn) [sulfoxide] as the compound, how does the “potency” value [1] read?
Answer: The value was “potency similar to miltefosine”.

Question: For `OO` [H2O2], which “percentage of the stressed population (+ROS)” value ([2]; 0.01% (v/v) H2O2) is on record?
Answer: Its value is 72.2%.

Question: What about the “unstressed population (−ROS)” value ([2]; 0.01% (v/v) H2O2) of the same compound?
Answer: Its value is 27.7%.

Question: Which results are given for `O=[N+]([O-])c1cn2c(n1)OC[C@@H](OCc1ccc(OC(F)(F)F)cc1)C2` [Pretomanid]?
Answer: inhibitory effect on L. infantum TryR (L. infantum TryR): neither fexinidazole nor pretomanid had any inhibitory effect; CC50 at 72 h [3]: > 200000 nM; CC50 at 72 h [4]: > 200000 nM; SI1 (Selectivity Index) [5, 7]: >303.03; SI2 (Selectivity Index) [5, 8]: >303.03; EC50 [5]: 660 ± 80 nM; SI1 (Selectivity Index) [6, 9]: >714.29; SI2 (Selectivity Index) [6, 10]: >714.29; EC50 [6]: 280 ± 20 nM; concentrations producing a decrease in fluorescence emission [6]: > 0.5 µM; percentage of the stressed population (+ROS) ([2]; 0.01% (v/v) H2O2): 39.8%; unstressed population (−ROS) ([2]; 0.01% (v/v) H2O2): 59.9%; percentage of the stressed population (+ROS) ([2]; 0.01% (v/v) H2O2, listed as pretomanid): 39.8 ± 1.2%

Question: For `CSc1ccc2c(c1)N(CCC1CCCCN1C)c1ccccc1S2` (stereo not drawn) [thioridazine], which “inhibitory effect on L. infantum TryR” value (L. infantum TryR) is on record?
Answer: The value was “completely inhibited the enzyme”.

Question: Which results are given for `C[C@@H]1[C@H](O)[C@@H](C)/C=C/C=C/C=C/C=C/C=C/C=C/C=C/[C@H](O[C@@H]2O[C@H](C)[C@@H](O)[C@H](N)[C@@H]2O)C[C@@H]2O[C@](O)(C[C@@H](O)C[C@@H](O)[C@H](O)CC[C@@H](O)C[C@@H](O)CC(=O)O[C@H]1C)C[C@H](O)[C@H]2C(=O)O` [Amp B]?
Answer: CC50 at 72 h ([3]; HepG2 cells): 69800 ± 13700 nM; CC50 at 72 h ([4]; RAW 264.7 macrophage cells): 6700 ± 670 nM; SI1 (Selectivity Index) [5]: 217.97; SI2 (Selectivity Index) [5]: 20.94; EC50 [5]: 320 ± 20 nM; SI1 (Selectivity Index) [6]: 258.33; SI2 (Selectivity Index) [6]: 24.82; EC50 [6]: 270 ± 20 nM

Question: Which “inhibitory effect on L. infantum TryR” value (L. infantum TryR) does the source give for `CSc1ccc(OCc2ncc([N+](=O)[O-])n2C)cc1` [Fexinidazole, 1-methyl-2-((p-(methylthio)-phenoxy)methyl)-5-nitroimidazole] here?
Answer: Its value is “neither fexinidazole nor pretomanid had any inhibitory effect”.

Question: And the CC50 at 72 h ([3]; HepG2 cells)?
Answer: Its CC50 at 72 h is greater than 200000 nM.

Question: And the CC50 at 72 h ([4]; RAW 264.7 macrophage cells)?
Answer: The CC50 at 72 h was greater than 200000 nM.

Question: What about the “SI1 (Selectivity Index)” value [5, 7] of the same compound?
Answer: The value was greater than 151.52.

Question: And the “SI2 (Selectivity Index)” value [5, 8]?
Answer: Its value is greater than 151.52.

Question: And the EC50 [5]?
Answer: The EC50 was 1320 ± 60 nM.

Question: And the “SI1 (Selectivity Index)” value [6, 9]?
Answer: The value was greater than 5000.00.

Question: And the “SI2 (Selectivity Index)” value [6, 10]?
Answer: Its value is greater than 5000.00.

Question: And the EC50 [6]?
Answer: The EC50 was 40 nM.

Question: And the “concentrations producing a decrease in fluorescence emission” value [6]?
Answer: Its value is “above 0.125 μM”.

Question: And the “percentage of the stressed population (+ROS)” value ([2]; 0.01% (v/v) H2O2)?
Answer: The value was 58.4 ± 1.5% and 58.4%.

Question: What about the “unstressed population (−ROS)” value ([2]; 0.01% (v/v) H2O2) of the same compound?
Answer: Its value is 41.6%.

Question: What about the “potency” value [1] of the same compound?
Answer: The value was “little activity”.
